Consider twelve molecules from patent US9199028B2, “Use of entrained neutrophils to treat metastatic and micrometastatic disease in at risk patients” (MEMORIAL SLOAN-KETTERING CANCER CENTER, priority 2010, dated 2015).

Entries after “also recorded” stand apart in the source; their conditions may differ.

The test system of data set [1] is 4T1 cells. Description: In vitro killing assay: TENs co-cultured with 4T1 cells in the presence of inhibitors or TGF-β. Format: cell-based, mouse. The conditions noted are these: for neutrophil (TEN) mediated tumour-cell killing in the presence of inhibitor: TENs + 4T1 cells overnight, Apocynin 100 μM, Catalase 1,000 u/ml, Superoxide Dismutase 1,000 u/ml, Taurine 50 mM; for TEN mediated in vitro killing of 4T1 cells in the presence of TGF-β: picomolar concentrations (up to 200 pMolar). From the text: (§1) Antibodies used for immunohistochemistry—MMP9, F4/80 and CCR2 (all from AbCam), Myeloperoxidase (Dako), Ly-6G and Cd11b (both from BD), and Cleaved Caspase 3 (Cell signalling). Antibodies used for western blotting—Actin (Sigma), CCL2 (AbCam) and CCL5 (R&D) p-SMAD2 (cell signalling). Antibodies used for FACS analysis FITC-Ly-6G, FITC-Cd11b, FITC-F4/80, FITC-Cd34 and FITC-c-Kit (all from BD) and VEGFR1-AP (R&D). Neutrophil Depletion Neutrophil depletion was achieved using daily IP injections of 12.5 μg Rat anti-Gr-1 antibody (BD) or Rat anti-Ly-6G antibody (BD) starting on day 3 post tumour engraftment. Starting on day 14, neutrophil depleting antibodies were administered twice daily. Control mice were injected with […] Rat isotype control (BD). Neutrophil depletion was monitored by manual blood differentials and FACS analysis. Flow Cytometry Peripheral blood was collected into EDTA-coated tubes, washed and resuspended in FACS buffer solution (PBS, 2% heat-inactivated FCS, 5 mM EDTA, and 0.02% sodium azide). The samples were blocked with […] and then incubated with fluorophore-conjugated antibodies. Erythrocytes were then lysed with FACS lysing solution (BD Biosciences) and the cell suspensions were analyzed on a FACSCalibur (BD Biosciences). Colony Formation Assay Female nude mice were orthotopically injected with 5×10^6 puromicin resistant 4T1 cells. On days 7 and 14 post tumour engraftment the mice were sacrificed and perfused with PBS. The lungs and livers were removed, washed with PBS and dissociated with Collagenase A (Roche). The single cell suspension was then plated onto puromicin containing media and selected for 14 day. Colonies were stained with Methylene-Blue and counted manually. Mouse Neutrophil Purification Whole blood was collected by cardiac puncture using heparinized (Sigma) syringe. The blood was diluted with 5 volumes of PBS containing 0.5% BSA and subjected to a discontinuous Histopaque (Sigma) gradient (1.077 and 1.119). Neutrophils were collected from the 1.077-1.119 interface, lymphocytes and monocytes collected from the plasma-1.077 interface. RBCs were eliminated by hypotonic lysis. The cells were washed twice with PBS-BSA and re-suspended in OptiMEM (Invitrogen) 0.5% FBS in a final concentration of 2×10^6 cells/ml. Neutrophil purity and viability were determined visually and were consistently >98%. Human Neutrophil Purification As part of a Memorial Sloan-Kettering Cancer Center institutionally approved protocol, blood samples (˜10 cc) were collected from healthy volunteers or from patients who were already having blood drawn for pre-surgical testing. Patients were consented accordingly as part of the approved protocol. […] Patients had either mastectomies or lumpectomies planned and had blood drawn prior to definitive surgical removal of their primary tumor or chemotherapy. Blood samples were transferred to the lab for analysis no more than 1 hour post-blood draw. Heparinzed blood (20 U/ml final) was mixed with an equal volume of Dextran 500 (3% in saline) and incubated 30 minutes at room temperature. The leukocyte-rich supernatant was layered on top of histopaque 1077 (Sigma) and centrifuged. Neutrophils, collected in the pellet fraction, were resuspended in 10 ml 0.2% NaCl for 30 seconds to remove contaminating erythrocytes. Isotonicity was restored by the addition of 10 ml 1.6% NaCl. Neutrophils were than washed three times in Hanks's balanced salt solution and resuspended in RPMI+FCS2%. In vitro Killing Assay Luciferase labelled cells (5,000/well) were plated on a 96-well, flat bottom white polystyrene tissue culture plate in OptiMEM 0.5% FBS (mouse neutrophils) or RPMI 2% FBS (human neutrophils). 4 hours later, purified neutrophils (100,000/well for mouse neutrophils and 5000 for human neutrophils) were added to the plated tumour cells and co-cultured overnight. […]

Data set [2] relates to MDA-MB-231 cells. The data set can be described thus: In vitro killing assay: human neutrophils co-cultured with luciferase labelled MDA-MB-231 cells. The format is cell-based. To be noted: naïve human neutrophils:tumor cells 1:1, chemokine 100 ng/ml (rhG-CSF 20 ng/ml), overnight.
Excerpt: Luciferase is under a constitutive promoter so cell death results in a decrease in luciferase activity because there is no transcription/translation of the lucierferase gene. The assay itself requires lysing of the cell to release the luciferase to mix with the luciferin and measure the luminescence. But it isn't that they dying cell releases luciferase. More signal means more luciferase which means more live cells. […]. […] Nave human neutrophils were co-cultured with MDA-MB-231 cells. […] Cells were seeded at a ratio of human neutrophils:human tumor cells=1:1.
as §1, with “NaCl.” for “NaCl. Neutrophils were than washed three times in Hanks's balanced salt solution and resuspended in RPMI+FCS2%. In vitro Killing Assay Luciferase labelled cells (5,000/well) were plated on a 96-well, flat bottom white polystyrene tissue culture plate in OptiMEM 0.5% FBS (mouse neutrophils) or RPMI 2% FBS (human neutrophils). 4 hours later, purified neutrophils (100,000/well for mouse neutrophils and 5000 for human neutrophils) were added to the plated tumour cells and co-cultured overnight.”

Data set [3] deals with 4T1 cells. The data set can be described thus: In vitro killing assay: naïve mouse neutrophils co-cultured with luciferase labelled 4T1 cells in the presence of chemokines. The format is cell-based. To be noted: naïve mouse neutrophils co-cultured with 4T1 cells, chemokine 20 ng/ml, overnight.
Excerpt: as §1

Data set [4] has as its system 4T1 cells. Description: In vivo stimulation of neutrophils with chemokines, purified neutrophils co-cultured with 4T1 cells. The conditions noted are these: healthy mice treated in vivo with G-CSF alone or G-CSF plus chemokine. Format: cell-based, mouse. Here is the method: A. To test which chemokines may participate in the stimulation of neutrophils, neutrophils purified from healthy mice were co-culture with luciferase labeled 4T1 cells in the presence (20 ng/ml of chemokine) or absence of certain chemokines for an overnight incubation. […] B. To test which chemokines are sufficient for in vivo stimulation of neutrophils healthy mice were treated with G-CSF (to boost neutrophil numbers) and either CCL2, CCL5 or CXCL1. Control mice were treated with G-CSF alone. Neutrophils were purified from these mice and co-cultured with Luciferase-labeled 4T1 cells. […] Conclusion—CCL2 and to a lesser degree CCL5 can stimulate tumor cell killing both in vitro and in vivo.

As to Superoxide Dismutase, the figures for the “neutrophil (TEN) mediated tumour-cell killing in the presence of inhibitor” value (“neutrophil … of inhibitor” below) in data set [1] and in data set [1] (listed as superoxide dismutase) were “does not” and “did not inhibit cell death”, respectively.

In the case of Catalase, the “neutrophil … of inhibitor” value in data set [1] is “completely inhibits tumour-cell killing”; in data set [1] (listed as catalase), “completely inhibits cell killing”.

Regarding CXCL1: CXC chemokine, the “neutrophil cytotoxicity / neutrophil mediated killing of MDA-MB-231 cells” value in data set [2] is “to a lesser extent CXCL1 significantly increase neutrophil cytotoxicity”. The “neutrophil mediated killing of 4T1 cells (tumor cell viability by luciferase activity)” value (shortened to “neutrophil mediated killing of 4T1 cells”) in data set [3] is listed as “no significant effect on tumor-cell viability”. For the same molecule, in data set [4], the “viability of 4T1 cells co-cultured with neutrophils purified from chemokine treated mice” value is on record as “did not induce a reduction in cell viability”.

For CCL3: CC chemokine, in data set [2], the “neutrophil cytotoxicity / neutrophil mediated killing of MDA-MB-231 cells” value is reported as “significantly increase neutrophil cytotoxicity”. Also, the “neutrophil mediated killing of 4T1 cells” value in data set [3] is given as “no significant effect on tumor-cell viability”.

CXCL12: CXC chemokine: the “neutrophil cytotoxicity / neutrophil mediated killing of MDA-MB-231 cells” value in data set [2] is recorded as “significantly increase neutrophil cytotoxicity”. Besides, the “neutrophil mediated killing of 4T1 cells” value in data set [3] was “no significant effect on tumor-cell viability”.

On to `NCCS(=O)(=O)O` [Taurine], for which the entries for the “neutrophil … of inhibitor” value in data set [1] and in data set [1] (listed as taurine) were “does not inhibit tumour-cell killing” and “did not reduce tumour-cell killing”, respectively.

Regarding “hCCL5: human CCL5 from R&D, used at 100 ng/ml”, the “neutrophil cytotoxicity / neutrophil mediated killing of MDA-MB-231 cells” value in data set [2] is on record as “induces neutrophil mediated cell killing; also recorded: induce the killing of human MDA-MB-231 in vitro”.

For TGF-β, the “TEN mediated in vitro killing of 4T1 cells in the presence of TGF-β” value in data set [1] was “dramatic inhibitory effect”; in data set [1] (listed as TGF-Beta), “dramatically inhibited TENs cytotoxicity towards tumour cells”.

“mCCL2: mouse CCL2 from R&D, used at 20 ng/ml”: in data set [3], the “neutrophil mediated killing of 4T1 cells” value was “induces neutrophil mediated cell killing; also recorded: induced tumour cell killing in vitro”.

For the molecule “hCCL2: human CCL2 from R&D, used at 100 ng/ml”, in data set [2], the “neutrophil cytotoxicity / neutrophil mediated killing of MDA-MB-231 cells” value is “induces neutrophil mediated cell killing; also recorded: induce the killing of human MDA-MB-231 in vitro”.

B1: CXCL16: CXC chemokine (protein, UniProt Q9H2A7 30-254, looked up)
C-X-C motif chemokine 16: NEGSVTGSCYCGKRISSDSPPSVQFMNRLRKHLRAYHRCLYYTRFQLLSWSVCGGNKDPWVQELMSCLDLKECGHAYSGIVAHQKHLLPTSPPISQASEGASSDIHTPAQMLLSTLQSTQRPTLPVGSLSSDKELTRPNETTIHTAGHSLAAGPEAGENQKQPEKNAGPTARTSATVPVLCLLAIIFILTAALSYVLCKRRRGQSPQSSPDLPVHYIPVAPDSNT
As to B1, the “neutrophil cytotoxicity / neutrophil mediated killing of MDA-MB-231 cells” value in data set [2] was “significantly increase neutrophil cytotoxicity”. Besides, the “neutrophil mediated killing of 4T1 cells” value in data set [3] is given as “significant reduction in tumor cell viability”.

B2: CCL4: CC chemokine (protein, UniProt P13236 24-92, looked up)
C-C motif chemokine 4: APMGSDPPTACCFSYTARKLPRNFVVDYYETSSLCSQPAVVFQTKRSKQVCADPSESWVQEYVYDLELN
Consider B2, for which the “neutrophil cytotoxicity / neutrophil mediated killing of MDA-MB-231 cells” value in data set [2] is “but not CCL4 significantly increase neutrophil cytotoxicity”. Also, the “neutrophil mediated killing of 4T1 cells” value in data set [3] is listed as “significant reduction in tumor cell viability”.
